Converted amounts (≈) assume the structure as drawn. “And” between values parts separate entries of the source, which are not always exact repeats. Equal values may be shown once. One block for each molecule: values may come before it.
Legend:
Assay in all cases: ≥ marks a high value that may be exact or a test limit, other limits are often not marked, values filed in µg/mL are converted to µM
[1] = system: Acinetobacter calcoaceticus
[2] = system: Candida albicans ATCC 2002
[3] = system: Escherichia coli ATCC 25922
Pseudomonas aeruginosa = system: Pseudomonas aeruginosa
Shigella dysenteriae = system: Shigella dysenteriae
[4] = system: Staphylococcus aureus ATCC 2592
[5] = system: Staphylococcus aureus NCTC 10788
Bacillus cereus = system: Bacillus cereus
Enterobacter cloacae = system: Enterobacter cloacae
Enterococcus faecalis = system: Enterococcus faecalis
Escherichia coli = system: Escherichia coli
Leuconostoc lactis = system: Leuconostoc lactis
Listeria innocua = system: Listeria innocua
Micrococcus luteus = system: Micrococcus luteus
Pasteurella multocida = system: Pasteurella multocida
[6] = system: Staphylococcus aureus ATCC 25923
[7] = system: Staphylococcus aureus ATCC 29213
[8] = system: Staphylococcus epidermidis
Streptococcus uberis = system: Streptococcus uberis
[9] = system: Staphylococcus aureus ATCC BAA-1556
[10] = system: Clavibacter michiganensis subsp. michiganensis DSM 46294
[11] = system: Pectobacterium carotovorum subsp. carotovorum DSM 30168
[12] = system: Pseudomonas corrugata DSM 7228
[13] = system: Pseudomonas syringae pv. syringae DSM 10604
[14] = system: Pseudomonas syringae pv. tomato DC3000
[15] = system: Xanthomonas vesicatoria DSM 50861
[16] = system: Candida albicans ATCC 10231
[17] = system: Enterococcus faecalis ATCC 29212
[18] = system: Pseudomonas aeruginosa ATCC 15422
[19] = system: Staphylococcus epidermidis KCTC 1917
[20] = system: Staphylococcus aureus USA 100
[21] = system: Candida albicans ATCC 90028
[22] = system: Pseudomonas aeruginosa ATCC 9027
[23] = system: Staphylococcus aureus USA 300
Bacillus subtilis = system: Bacillus subtilis
[24] = system: Klebsiella pneumoniae ATCC 13883
[25] = system: Pseudomonas aeruginosa ATCC 27853
[26] = system: Salmonella enterica subsp. enterica serovar Typhimurium ATCC 14028
[27] = system: Streptococcus pyogenes ATCC 19615

MIC [1]: ≥ 66.9 µM
MIC [2]: 13.4 µM (≈ 15 µg/mL)
MIC [3]: 26.8 µM (≈ 30 µg/mL)
MIC (Pseudomonas aeruginosa): 22.3 µM (≈ 25 µg/mL)
MIC (Shigella dysenteriae): ≥ 53.6 µM
MIC [4]: 13.4 µM (≈ 15 µg/mL)
Compound: CC[C@H](C)[C@H](NC(=O)[C@@H]1CCCN1C(=O)[C@H](Cc1ccccc1)NC(=O)[C@@H](N)Cc1ccccc1)C(=O)N[C@H](C(=O)NCC(=O)N[C@@H](CCCCN)C(=O)N[C@@H](CC(C)C)C(=O)N[C@@H](CC(C)C)C(=O)N[C@@H](CO)C(N)=O)C(C)C [FFPIVGKLLS]

MIC [5]: ≥ 137 µM
Compound: CC[C@H](C)[C@H](NC(=O)[C@H](CC(C)C)NC(=O)CNC(=O)[C@H](CC(C)C)NC(=O)[C@@H](N)Cc1ccccc1)C(=O)NCC(=O)N[C@@H](CO)C(=O)N[C@@H](CC(C)C)C(=O)N[C@@H](CC(C)C)C(N)=O [FLGLIGSLL]

MIC (Bacillus cereus): 19.1 µM (≈ 50 µg/mL)
MIC (Enterobacter cloacae): ≥ 38.1 µM
MIC (Enterococcus faecalis): ≥ 38.1 µM
MIC (Escherichia coli): > 38.1 µM
MIC (Leuconostoc lactis): 9.53 µM (≈ 25 µg/mL)
MIC (Listeria innocua): 4.57 µM (≈ 12 µg/mL)
MIC (Micrococcus luteus): 4.57 µM (≈ 12 µg/mL)
MIC (Pasteurella multocida): 19.1 µM (≈ 50 µg/mL)
MIC (Pseudomonas aeruginosa): > 38.1 µM
MIC [6]: 4.57 µM (≈ 12 µg/mL)
MIC [7]: 4.57 µM (≈ 12 µg/mL)
MIC [8]: 9.53 µM (≈ 25 µg/mL)
MIC (Streptococcus uberis): 9.53 µM (≈ 25 µg/mL)
Compound: CC[C@H](C)[C@H](NC(=O)[C@@H](NC(=O)[C@@H]1CCCN1C(=O)[C@@H](NC(=O)[C@@H](NC(=O)[C@H](Cc1cnc[nH]1)NC(=O)[C@@H]1CCCN1C(=O)[C@H](CC(C)C)NC(=O)[C@H](CC(C)C)NC(=O)[C@H](Cc1cnc[nH]1)NC(=O)[C@H](CCCCN)NC(=O)[C@H](C)NC(=O)[C@@H](NC(=O)[C@H](CO)NC(=O)CNC(=O)[C@H](CC(C)C)NC(=O)[C@@H](NC(=O)[C@H](CO)NC(=O)[C@H](Cc1ccccc1)NC(=O)[C@H](CC(C)C)NC(=O)CN)C(C)C)C(C)C)C(C)C)C(C)C)C(C)C)C(=O)N[C@@H](C)C(=O)N[C@@H](CCC(=O)O)C(=O)N[C@@H](CCCCN)C(=O)N[C@@H](CC(C)C)C(N)=O [GLFSVLGSVAKHLLPHVVPVIAEKL]

MIC [9]: ≥ 100 µM
Compound: CC(C)C[C@H](NC(=O)[C@H](CC(C)C)NC(=O)[C@H](CCCCN)NC(=O)[C@@H](N)CCCCN)C(=O)N[C@@H](CCCCN)C(=O)N[C@@H](Cc1c[nH]c2ccccc12)C(N)=O [KKLLKW]

MIC [10]: 0.0404 µM (≈ 0.0999 µg/mL)
MIC [11]: 4.04 µM (≈ 10 µg/mL)
MIC [12]: 0.101 µM (≈ 0.25 µg/mL)
MIC [13]: 4.04 µM (≈ 10 µg/mL)
MIC [14]: 4.04 µM (≈ 10 µg/mL)
MIC [15]: 0.0404 µM (≈ 0.0999 µg/mL)
Compound: CC[C@H](C)[C@H](NC(=O)[C@H](C)NC(=O)[C@H](CCCCN)NC(=O)[C@H](CCCN=C(N)N)NC(=O)[C@H](CCCN=C(N)N)NC(=O)[C@@H](N)CCCCN)C(=O)N[C@@H](CCCCN)C(=O)N[C@H](C(=O)N[C@@H](CC(C)C)C(=O)N[C@@H](CCCCN)C(=O)N[C@@H](CC(C)C)C(=O)N[C@H](C(=O)N[C@@H](C)C(=O)N[C@@H](CCCCN)C(=O)N[C@@H](CC(C)C)C(=O)N[C@H](C(=O)N[C@@H](CCCN=C(N)N)C(=O)N[C@@H](CCCCN)C(=O)N[C@@H](CCCCN)C(=O)N[C@@H](CCCN=C(N)N)C(N)=O)[C@@H](C)CC)[C@@H](C)CC)[C@@H](C)CC [KRRKAIKILKLIAKLIRKKR]

MIC [16]: > 500 µM
MIC [17]: 468 µM and 458 µM and 442 µM
MIC [3]: > 500 µM
MIC [18]: ≥ 500 µM
MIC [19]: ≥ 315 µM
Compound: CC(C)C[C@H](NC(=O)CNC(=O)[C@H](Cc1ccc(O)cc1)NC(=O)[C@H](Cc1cnc[nH]1)NC(=O)[C@@H]1CCCN1C(=O)[C@H](CC(C)C)NC(=O)[C@H](CCC(=O)O)NC(=O)[C@H](Cc1ccccc1)NC(=O)[C@H](Cc1cnc[nH]1)NC(=O)[C@H](CO)NC(=O)[C@@H](N)CCCCN)C(=O)O [KSHFELPHYGL]

MIC [9]: ≥ 100 µM
Compound: NCCCC[C@H](N)C(=O)N[C@@H](Cc1c[nH]c2ccccc12)C(=O)N[C@@H](CCCN=C(N)N)C(=O)N[C@@H](CCCN=C(N)N)C(=O)N[C@@H](Cc1c[nH]c2ccccc12)C(N)=O [KWRRW]

MIC [9]: 3.13 µM (≈ 3.56 µg/mL)
Compound: CC(C)C[C@H](NC(=O)[C@H](CC(C)C)NC(=O)[C@H](CCCCN)NC(=O)[C@H](CC(C)C)NC(=O)[C@H](CC(C)C)NC(=O)[C@H](Cc1c[nH]c2ccccc12)NC(=O)[C@H](CCCCN)NC(=O)[C@H](CC(C)C)NC(=O)[C@@H](N)CC(C)C)C(N)=O [LLKWLLKLL]

MIC [9]: 3.13 µM (≈ 3.34 µg/mL)
Compound: CC(C)C[C@H](NC(=O)[C@H](CC(C)C)NC(=O)[C@H](CCCCN)NC(=O)[C@H](CC(C)C)NC(=O)[C@H](CC(C)C)NC(=O)[C@H](CCCCN)NC(=O)[C@H](CC(C)C)NC(=O)[C@H](CC(C)C)NC(=O)[C@@H](N)CC(C)C)C(N)=O [LLLKLLKLL]

MIC [20]: ≥ 100 µM
Compound: NC(=O)CC[C@H](NC(=O)[C@H](CCCN=C(N)N)NC(=O)[C@@H](N)CCC(N)=O)C(=O)N[C@@H](CCCN=C(N)N)C(N)=O [QRQR]

MIC [10]: 0.61 µM (≈ 0.999 µg/mL)
MIC [11]: 6.1 µM (≈ 9.99 µg/mL)
MIC [12]: 0.305 µM (≈ 0.5 µg/mL)
MIC [13]: 0.061 µM (≈ 0.0999 µg/mL)
MIC [14]: 0.61 µM (≈ 0.999 µg/mL)
MIC [15]: 0.61 µM (≈ 0.999 µg/mL)
Compound: CC[C@H](C)[C@H](NC(=O)[C@H](CCCCN)NC(=O)[C@H](Cc1ccccc1)NC(=O)[C@H](CCCCN)NC(=O)[C@H](CCCCN)NC(=O)[C@H](CCCCN)NC(=O)[C@@H](N)CCCN=C(N)N)C(=O)N[C@@H](Cc1ccccc1)C(=O)N[C@@H](CCCCN)C(=O)N[C@@H](CCCN=C(N)N)C(=O)N[C@@H](CC(C)C)C(=O)N[C@@H](Cc1ccccc1)C(N)=O [RKKKFKIFKRLF]

MIC [21]: ≥ 100 µM
MIC [22]: > 100 µM
MIC [20]: ≥ 100 µM
MIC [23]: ≥ 100 µM
Compound: CSCC[C@H](NC(=O)[C@H](Cc1cnc[nH]1)NC(=O)[C@H](CCCCN)NC(=O)[C@H](CC(C)C)NC(=O)[C@H](CCCCN)NC(=O)[C@@H](N)CCCN=C(N)N)C(=O)N[C@@H](CCCN=C(N)N)C(=O)N[C@@H](Cc1ccccc1)C(=O)O [RKLKHMRF]

MIC (Bacillus subtilis): ≥ 60 µM
MIC [17]: 70 µM (≈ 130 µg/mL)
MIC (Escherichia coli): 30 µM (≈ 55.5 µg/mL)
MIC [24]: ≥ 70 µM
MIC [25]: 60 µM (≈ 111 µg/mL)
MIC [26]: 80 µM (≈ 148 µg/mL)
MIC [6]: 80 µM (≈ 148 µg/mL)
MIC [27]: ≥ 100 µM
Compound: CC(C)C[C@H](NC(=O)[C@H](CO)NC(=O)[C@H](CCCN=C(N)N)NC(=O)[C@H](CCCCN)NC(=O)[C@@H](NC(=O)[C@@H](NC(=O)CNC(=O)[C@H](CCCN=C(N)N)NC(=O)[C@H](Cc1cnc[nH]1)NC(=O)[C@H](Cc1c[nH]c2ccccc12)NC(=O)[C@H](Cc1ccccc1)NC(=O)[C@H](Cc1cnc[nH]1)NC(=O)[C@H](Cc1ccc(O)cc1)NC(=O)[C@@H](N)Cc1ccc(O)cc1)C(C)C)[C@@H](C)O)C(=O)O [YYHFWHRGVTKRSL]

Reference: DBAASP
